Assay results reported in US20140335179A1, “[…] OF ATORVASTATIN HEMICALCIUM” (DSM SINOCHEM PHARMACEUTICALS NETHERLANDS B.V., priority 2011, published 2014).
Values joined by “and” are separate entries in the source; they are usually repeats but may differ in a detail not shown here. Equal values may be shown once.

Experiments:
[1] = Determination of intrinsic dissolution rate (IDR), stationary disc method, USP 24 apparatus; format: physicochemical; conditions: 37°C, 100 rpm, hemi calcium salt; for IDR, mean value: 50 mM sodium dihydrogen phosphate buffer pH 6.8 with 2% w/v sodium lauryl sulphate
Protocol: IDR of crystalline and amorphous atorvastatin hemi-calcium samples was performed by the stationary disc method using USP 24 apparatus. The discs were prepared by compacting 100 mg of powder at 800 psi pressure in a hydraulic press (Hydraulic Unit Model 3912, Carver Inc., WI) with a dwell time of 15 sec, in 8 mm punch die set (surface area 0.5 cm^2). The dissolution studies were performed in 500 ml of 50 mM sodium dihydrogen phosphate buffer (pH 6.8) containing 2% w/v sodium lauryl sulphate maintained at a temperature of 37±0.5° C. and a rotational speed of 100 rpm. Samples were withdrawn at regular intervals, replaced with dissolution medium, and analyzed by UV spectrophotometry at 242 nm up to 60 minutes.

[2] = Specific surface area determination by nitrogen gas sorption (BET); format: physicochemical; conditions: individual samples, hemi calcium salt
Protocol: Specific surface area of the samples was determined using nitrogen gas sorption (Smartsorb, Smart Instruments, Mumbai, India). Prior to measurements, weighed samples were regenerated by degassing to remove moisture and contamination. The regenerated sample was dipped in liquid nitrogen and the quantity of the adsorbed gas was measured using thermal conductivity detector and then integrated using electronic circuit in terms of counts. The instrument was calibrated by injecting known quantity of nitrogen. The measured parameters were then used to calculate surface area of the sample by employing the adsorption theories of Brunauer, Emmett and Teller (BET).

[3] = mean value of 35 separate batches
Protocol: • Instrument: The PSD was determined using a Malvern Mastersizer 2000 equipped with hydro 2000S(A), flow cell, Fourier lenses and a multi-element detector • Data handling system: Malvern Mastersizer 2000 version 5.21 • Technique used: Wet method • Optical parameters: Optical presentation comprising of: • Particle RI: 1.5 • Absorption: 0 • Dispersant RI: 1.375 or 1.4 • Analysis Model: General purpose • Sample measurement snaps: 5000 • Background meas. snaps: 5000 • No. of measurement cycles: 5 • Delay between measurements: 5 sec • Preparation of sample solution: About 25 mg of the sample was weighed in a beaker and about 20 mL of dispersion medium was added with constant stirring and sonification for 30 sec resulting in a uniform dispersion. After sonification the measurement was performed after the obscure value was stabilized between 10-20% • Procedure: • a. The flow cell was assembled to the instrument • b. Dispersion medium poured to Hydro 2000S(A) unit • c. Stirrer speed was set at 2200 rpm • d. Instrument was aligned after feeding the required parameters • e. Background was measured • f. Sample was analyzed by recording five measurements for each sample preparation and the mean RSD values were collected at D(v, 0.1), D(v, 0.5) and D(v, 0.9)

Row | Compound | IDR, mean value [1] [mg/cm^2/min] | IDR values of three samples ([1]; three different micronized samples of the Example, pH 6.8 buffer with 2% SLS) | surface area [2] | PSD d10 [3] [μm] | PSD d50 [3] [μm] | PSD d90 [3] [μm]
1 | CC(C)c1c(C(=O)Nc2ccccc2)c(-c2ccccc2)c(-c2ccc(F)cc2)n1CC[C@@H](O)C[C@@H](O)CC(=O)O.CC(C)c1c(C(=O)Nc2ccccc2)c(-c2ccccc2)c(-c2ccc(F)cc2)n1CC[C@@H](O)C[C@@H](O)CC(=O)O.CC(C)c1c(C(=O)Nc2ccccc2)c(-c2ccccc2)c(-c2ccc(F)cc2)n1CC[C@@H](O)C[C@@H](O)CC(=O)[O-].CC(C)c1c(C(=O)Nc2ccccc2)c(-c2ccccc2)c(-c2ccc(F)cc2)n1CC[C@@H](O)C[C@@H](O)CC(=O)[O-].[Ca+2] (relative stereo) [amorphous atorvastatin, [R-(R*,R*)]-2-(4-fluorophenyl)-β,δ-dihydroxy-5-(1-methylethyl)-3-phenyl-4-[(phenylamino)carbonyl]-1H-pyrrole-1-heptanoic acid hemi calcium salt, reference compound] | 0.281 |  |  |  |  | 
2 | CC(C)c1c(C(=O)Nc2ccccc2)c(-c2ccccc2)c(-c2ccc(F)cc2)n1CC[C@@H](O)C[C@@H](O)CC(=O)O.CC(C)c1c(C(=O)Nc2ccccc2)c(-c2ccccc2)c(-c2ccc(F)cc2)n1CC[C@@H](O)C[C@@H](O)CC(=O)O.CC(C)c1c(C(=O)Nc2ccccc2)c(-c2ccccc2)c(-c2ccc(F)cc2)n1CC[C@@H](O)C[C@@H](O)CC(=O)[O-].CC(C)c1c(C(=O)Nc2ccccc2)c(-c2ccccc2)c(-c2ccc(F)cc2)n1CC[C@@H](O)C[C@@H](O)CC(=O)[O-].[Ca+2] (relative stereo) [crystalline atorvastatin hemi-calcium having a well-defined ] [[R-(R*,R*)]-2-(4-fluorophenyl)-β,δ-dihydroxy-5-(1-methylethyl)-3-phenyl-4-[(phenylamino)carbonyl]-1H-pyrrole-1-heptanoic acid hemi calcium salt] | 0.132 | 0.146±0.013 mg/cm^2/min and 0.130±0.017 mg/cm^2/min and 0.109±0.006 mg/cm^2/min | 8.550±0.051 m^2/g and 8.384±0.303 m^2/g and 8.684±0.216 m^2/g | 3 | 6 | 12
